# Experimental data reported in US20160022675A1, “PROCESSES FOR PREPARING TETRAHYDROISOQUINOLINES” (BRISTOL-MYERS SQUIBB COMPANY, priority 2013, published 2016).
# Tests used:
# [1] = target: T1, NET (Homo sapiens, UniProt P23975); test: Competition binding, membranes from HEK cells overexpressing NET; set-up: expressed in transfected cells; host or cells: HEK cells (membranes); conditions: radioligand at Kd concentration; HEK cell membranes
# Procedure: Competition binding experiments were performed to determine the in vitro binding potencies (IC50 values) of Compound 1-(4S) for SERT, DAT, and NET. Membranes prepared from human embryonic kidney (HEK) cells overexpressing each transporter were employed. Radioligands were used at their respective affinity constant (Kd) concentrations for each transporter to enable direct comparisons of the IC50 values between assays.
# [2] = test system: stereotypy; test: Stereotypy, mouse; format: in vivo
# From the text: (§1) To better understand the margin between doses of Compound 1-(4S) that are effective in the mouse tail suspension models and those that lead to monoamine-related side effects, locomotor activity was examined to assess psychostimulant properties and stereotypy was examined to assess more severe DA-related side effects. Increased body temperature, another effect that has been attributed to DA pharmacology, was also studied. In the mouse, Compound 1-(4S) increased locomotor activity and stereotypy scores at doses of 3.0 mg/kg and 10 mg/kg, respectively. Thus, the margin between the Compound 1-(4S) effective dose in the mouse tail suspension and increased locomotor activity was 10-fold and the margin versus activity in stereotypy was 30-fold. The thermogenic effect of Compound 1-(4S) was studied in mice and rats by measuring changes in rectal temperature following administration of the compound. […] The onset of the thermogenesis was earlier as the dose was increased. The levels of SERT and NET occupancy were over 80% and appeared saturated across the doses tested. The DAT occupancy was dose-dependent, with 55±5.7% at 1.0 mg/kg, 74±6% at 3.0 mg/kg, and 83±0.8% at 10 mg/kg. […] The onset of the temperature increase was earlier at the highest dose of 10 mg/kg. […] The DAT occupancy was 37±8.3%, 55±5.2%, and 71±1.7% at 1.0, 3.0, and 10 mg/kg, respectively. […]
# [3] = Distribution coefficient; format: physicochemical
# [4] = target: T2, NET (Rattus norvegicus, UniProt Q63380); test: NET occupancy, rat; format: in vivo; conditions: thermogenesis study, all 3 doses (1.0, 3.0, 10 mg/kg)
# T2 construct: from tissue; host or cells: rat, in vivo dosing
# From the text: as §1
# [5] = pH-Solubility profile (aqueous); format: physicochemical; conditions: aqueous solution, aqueous buffer; solution pH 6.5 and above
# [6] = target: T1, NET; test: [3H]NE uptake into HEK293/hNET cells; format: cell-based; set-up: expressed in transfected cells; host or cells: HEK293; conditions: read-out: Norepinephrine reuptake IC50 ([3H]NE uptake)
# From the text: (§2) Cell-based assays were used to determine the ability of Compound 1-(4S) to inhibit reuptake of 3H-labeled DA ([3H]DA), NE ([3H]NE), and 5-HT ([3H]5-HT).
# [7] = target: SERT (Homo sapiens, UniProt P31645); test: [3H]5-HT uptake into HEK293/hSERT cells; format: cell-based; set-up: expressed in transfected cells; host or cells: HEK293; conditions: read-out: Serotonin reuptake IC50 ([3H]5-HT uptake)
# From the text: as §2
# [8] = Solution pH; format: physicochemical; conditions: at about 1 μg/mL concentration in water
# [9] = target: T3, SERT (Rattus norvegicus, UniProt P31652); test: SERT occupancy, rat; format: in vivo; conditions: thermogenesis study, all 3 doses (1.0, 3.0, 10 mg/kg)
# T3 construct: from tissue; host or cells: rat, in vivo dosing
# From the text: as §1
# [10] = test system: rectal temperature; test: Thermogenic effect (rectal temperature), rat; format: in vivo
# From the text: (§3) To better understand the margin between doses of Compound 1-(4S) that are effective in the mouse tail suspension models and those that lead to monoamine-related side effects, locomotor activity was examined to assess psychostimulant properties and stereotypy was examined to assess more severe DA-related side effects. Increased body temperature, another effect that has been attributed to DA pharmacology, was also studied. In the mouse, Compound 1-(4S) increased locomotor activity and stereotypy scores at doses of 3.0 mg/kg and 10 mg/kg, respectively. Thus, the margin between the Compound 1-(4S) effective dose in the mouse tail suspension and increased locomotor activity was 10-fold and the margin versus activity in stereotypy was 30-fold. The thermogenic effect of Compound 1-(4S) was studied in mice and rats by measuring changes in rectal temperature following administration of the compound. […] The onset of the thermogenesis was earlier as the dose was increased. The levels of SERT and NET occupancy were over 80% and appeared saturated across the doses tested. The DAT occupancy was dose-dependent, with 55±5.7% at 1.0 mg/kg, 74±6% at 3.0 mg/kg, and 83±0.8% at 10 mg/kg. […] The onset of the temperature increase was earlier at the highest dose of 10 mg/kg. […] The DAT occupancy was 37±8.3%, 55±5.2%, and 71±1.7% at 1.0, 3.0, and 10 mg/kg, respectively. Consistent with data obtained with mice, the thermogenic effect of Compound 1-(4S) is dose dependently related to DAT occupancy and at least 50% DAT occupancy is needed for this effect.
# [11] = test system: rectal temperature; test: Thermogenic effect (rectal temperature), mouse; format: in vivo; conditions: 4 hours after doses of 1, 3, and 10 mg/kg
# From the text: as §1
# [12] = target: DAT (Homo sapiens, UniProt Q01959); test: [3H]DA uptake into HEK293/hDAT cells; format: cell-based; set-up: expressed in transfected cells; host or cells: HEK293; conditions: read-out: Dopamine reuptake IC50 ([3H]DA uptake)
# From the text: as §2
# [13] = target: T4, SERT (Mus musculus, UniProt Q60857); test: SERT occupancy in the brain, mouse; format: in vivo
# T4 construct: from tissue; host or cells: mouse brain
# Procedure: (§4) The effects of Compound 1-(4S) in the mouse tail suspension model of depression and target site occupancy were assessed to compare occupancies associated with the behavioral response. The mouse tail suspension model is known the art. […] The lowest effective dose of Compound 1-(4S), 0.3 mg/kg, PO, decreased immobility by 77% relative to vehicle-treated controls. […] Administration of Compound 1-(4S) led to dose-dependent occupancy of SERT, NET, and DAT binding sites in the brain. At the lowest behaviorally-effective dose (0.3 mg/kg), occupancies were 86±1% of SERT, 76±3% of NET, and 28±3% of DAT. At 1 mg/kg, occupancies were 89±1%, 82±1% and 54±3% at SERT, NET, and DAT, respectively. Pharmacokinetics and pharmacodynamics (PD) in mouse, rat, and dog focused primarily on DAT occupancy since SERT and NET occupancies were saturated by drug for most, if not all, of the times studied. DAT occupancy increased as a function of increasing plasma exposure. The DAT occupancy to total plasma level could be fitted using a single binding site model and plasma level ED50 (the dose producing 50% effect) values could be calculated.
# To better understand the margin between doses of Compound 1-(4S) that are effective in the mouse tail suspension models and those that lead to monoamine-related side effects, locomotor activity was examined to assess psychostimulant properties and stereotypy was examined to assess more severe DA-related side effects. Increased body temperature, another effect that has been attributed to DA pharmacology, was also studied. In the mouse, Compound 1-(4S) increased locomotor activity and stereotypy scores at doses of 3.0 mg/kg and 10 mg/kg, respectively. Thus, the margin between the Compound 1-(4S) effective dose in the mouse tail suspension and increased locomotor activity was 10-fold and the margin versus activity in stereotypy was 30-fold. The thermogenic effect of Compound 1-(4S) was studied in mice and rats by measuring changes in rectal temperature following administration of the compound. […] The onset of the thermogenesis was earlier as the dose was increased. […]
# [14] = Stability; format: physicochemical; conditions: with protection from light
# [15] = target: T5, DAT (Rattus norvegicus, UniProt P23977); test: DAT occupancy, rat; format: in vivo
# T5 construct: from tissue; host or cells: rat, in vivo dosing
# Procedure: as §4, §3
# [16] = target: T6, DAT (Mus musculus, UniProt Q61327); test: DAT occupancy in the brain, mouse; format: in vivo
# T6 construct: from tissue; host or cells: mouse brain
# Procedure: as §4, §3
# [17] = mouse brain, 0.3 mg/kg, tail suspension study
# [18] = mouse brain, 1 mg/kg, tail suspension study
# [19] = single binding site model, read-out: total plasma concentration producing 50% effect (EC50), DAT occupancy
# T4 sequence (Q60857 whole entry): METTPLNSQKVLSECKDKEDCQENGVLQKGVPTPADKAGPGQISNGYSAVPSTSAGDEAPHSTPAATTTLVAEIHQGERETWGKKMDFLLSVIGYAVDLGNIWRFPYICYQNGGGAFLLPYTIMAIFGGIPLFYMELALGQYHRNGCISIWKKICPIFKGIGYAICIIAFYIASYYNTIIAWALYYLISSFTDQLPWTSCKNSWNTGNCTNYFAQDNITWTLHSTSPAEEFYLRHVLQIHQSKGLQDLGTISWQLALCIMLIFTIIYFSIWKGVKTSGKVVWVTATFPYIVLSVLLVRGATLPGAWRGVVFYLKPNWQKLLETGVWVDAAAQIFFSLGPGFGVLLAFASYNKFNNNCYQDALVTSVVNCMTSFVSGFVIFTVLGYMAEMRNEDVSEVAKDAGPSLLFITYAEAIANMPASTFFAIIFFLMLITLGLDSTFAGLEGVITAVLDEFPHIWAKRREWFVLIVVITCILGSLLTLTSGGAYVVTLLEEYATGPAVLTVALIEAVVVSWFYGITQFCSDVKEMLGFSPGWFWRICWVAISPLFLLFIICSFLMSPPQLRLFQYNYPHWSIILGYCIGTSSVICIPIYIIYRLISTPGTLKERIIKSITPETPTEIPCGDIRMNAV
# T6 sequence (Q61327 whole entry): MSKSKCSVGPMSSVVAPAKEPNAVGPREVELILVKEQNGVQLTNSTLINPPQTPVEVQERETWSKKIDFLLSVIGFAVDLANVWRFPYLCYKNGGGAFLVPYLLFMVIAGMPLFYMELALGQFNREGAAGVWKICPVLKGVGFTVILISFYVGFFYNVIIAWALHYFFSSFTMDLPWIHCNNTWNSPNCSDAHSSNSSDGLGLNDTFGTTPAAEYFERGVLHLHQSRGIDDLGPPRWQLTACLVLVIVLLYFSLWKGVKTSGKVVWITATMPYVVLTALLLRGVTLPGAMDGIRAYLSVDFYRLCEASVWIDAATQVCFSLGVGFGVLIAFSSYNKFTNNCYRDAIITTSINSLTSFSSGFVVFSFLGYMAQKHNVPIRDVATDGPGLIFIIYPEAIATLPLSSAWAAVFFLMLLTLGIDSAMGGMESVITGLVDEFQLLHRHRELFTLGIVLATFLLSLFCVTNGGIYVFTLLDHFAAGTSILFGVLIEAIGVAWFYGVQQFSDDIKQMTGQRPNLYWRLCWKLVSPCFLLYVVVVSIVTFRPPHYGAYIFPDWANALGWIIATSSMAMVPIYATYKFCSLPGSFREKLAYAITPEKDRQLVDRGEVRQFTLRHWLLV
# T5 sequence (P23977 whole entry): as the sequence (Q61327 whole entry) above, with P21S, V57A, S194A, R600H, V619L counted along it
# T1 sequence (P23975 whole entry): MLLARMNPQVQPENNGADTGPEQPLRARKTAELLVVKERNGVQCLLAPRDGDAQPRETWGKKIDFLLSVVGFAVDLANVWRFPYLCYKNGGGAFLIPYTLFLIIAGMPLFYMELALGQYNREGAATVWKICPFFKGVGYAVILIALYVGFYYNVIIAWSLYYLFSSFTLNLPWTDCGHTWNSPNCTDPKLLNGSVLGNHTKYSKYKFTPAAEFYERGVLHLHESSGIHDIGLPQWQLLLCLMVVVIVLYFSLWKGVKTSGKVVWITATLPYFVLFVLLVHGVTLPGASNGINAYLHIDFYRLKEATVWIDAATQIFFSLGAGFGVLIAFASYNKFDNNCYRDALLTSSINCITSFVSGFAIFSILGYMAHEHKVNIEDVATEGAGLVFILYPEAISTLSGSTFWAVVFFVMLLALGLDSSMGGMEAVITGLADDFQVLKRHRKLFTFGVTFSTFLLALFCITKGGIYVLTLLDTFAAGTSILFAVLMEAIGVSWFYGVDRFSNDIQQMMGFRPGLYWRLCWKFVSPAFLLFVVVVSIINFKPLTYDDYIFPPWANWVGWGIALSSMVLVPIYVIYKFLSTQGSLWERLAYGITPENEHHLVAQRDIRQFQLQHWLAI
# T2 sequence (Q63380 1-617): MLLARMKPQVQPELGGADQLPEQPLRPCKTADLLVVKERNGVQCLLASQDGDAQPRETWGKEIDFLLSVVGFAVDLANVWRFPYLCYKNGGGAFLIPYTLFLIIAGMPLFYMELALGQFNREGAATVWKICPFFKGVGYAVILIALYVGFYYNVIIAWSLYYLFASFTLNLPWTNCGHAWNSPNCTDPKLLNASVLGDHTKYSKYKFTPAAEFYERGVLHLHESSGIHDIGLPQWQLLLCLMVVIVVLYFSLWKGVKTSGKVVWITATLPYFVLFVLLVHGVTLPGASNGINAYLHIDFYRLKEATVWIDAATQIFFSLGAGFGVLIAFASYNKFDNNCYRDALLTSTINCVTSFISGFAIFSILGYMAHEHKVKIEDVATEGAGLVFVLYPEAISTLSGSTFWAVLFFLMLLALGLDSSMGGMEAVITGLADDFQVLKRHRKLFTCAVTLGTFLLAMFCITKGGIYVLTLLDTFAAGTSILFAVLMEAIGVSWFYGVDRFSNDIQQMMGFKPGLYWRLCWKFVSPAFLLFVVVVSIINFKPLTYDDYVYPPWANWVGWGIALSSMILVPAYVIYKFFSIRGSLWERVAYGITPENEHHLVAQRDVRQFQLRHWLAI
# T3 sequence (P31652 whole entry): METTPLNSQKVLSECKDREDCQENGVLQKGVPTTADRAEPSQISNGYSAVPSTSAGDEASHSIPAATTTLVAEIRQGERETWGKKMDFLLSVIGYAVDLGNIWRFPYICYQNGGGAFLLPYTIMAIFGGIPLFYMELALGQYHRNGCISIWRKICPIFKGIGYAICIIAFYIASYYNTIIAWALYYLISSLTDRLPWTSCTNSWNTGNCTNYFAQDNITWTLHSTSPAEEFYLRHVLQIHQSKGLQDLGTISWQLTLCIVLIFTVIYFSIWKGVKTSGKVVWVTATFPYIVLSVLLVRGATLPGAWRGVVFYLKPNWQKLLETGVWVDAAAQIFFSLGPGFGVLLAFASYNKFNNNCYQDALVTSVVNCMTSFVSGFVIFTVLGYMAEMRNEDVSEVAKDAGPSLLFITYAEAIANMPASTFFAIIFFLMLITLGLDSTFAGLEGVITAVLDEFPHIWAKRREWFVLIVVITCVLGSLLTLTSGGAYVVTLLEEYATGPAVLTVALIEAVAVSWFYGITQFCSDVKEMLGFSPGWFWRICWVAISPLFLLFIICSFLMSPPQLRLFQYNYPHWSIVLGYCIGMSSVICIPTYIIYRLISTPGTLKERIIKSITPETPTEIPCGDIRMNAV
# Sequence of SERT (Homo sapiens, UniProt P31645) (P31645 whole entry): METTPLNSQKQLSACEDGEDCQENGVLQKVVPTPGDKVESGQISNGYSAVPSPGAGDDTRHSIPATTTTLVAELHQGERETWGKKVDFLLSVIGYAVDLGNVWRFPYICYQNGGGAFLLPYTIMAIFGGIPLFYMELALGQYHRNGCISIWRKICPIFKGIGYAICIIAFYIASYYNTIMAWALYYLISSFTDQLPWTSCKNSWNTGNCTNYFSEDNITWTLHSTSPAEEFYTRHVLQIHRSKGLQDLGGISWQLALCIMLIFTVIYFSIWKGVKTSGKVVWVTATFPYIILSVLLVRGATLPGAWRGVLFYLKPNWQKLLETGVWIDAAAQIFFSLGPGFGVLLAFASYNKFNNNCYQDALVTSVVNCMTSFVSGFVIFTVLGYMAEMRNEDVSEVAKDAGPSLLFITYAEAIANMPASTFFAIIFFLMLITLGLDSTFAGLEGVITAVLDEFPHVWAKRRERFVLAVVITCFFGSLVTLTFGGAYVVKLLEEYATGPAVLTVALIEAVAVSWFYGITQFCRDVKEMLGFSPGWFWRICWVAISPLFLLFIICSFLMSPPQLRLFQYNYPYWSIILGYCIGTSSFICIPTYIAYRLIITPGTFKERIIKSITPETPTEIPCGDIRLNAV
# Sequence of DAT (Homo sapiens, UniProt Q01959) (Q01959 whole entry): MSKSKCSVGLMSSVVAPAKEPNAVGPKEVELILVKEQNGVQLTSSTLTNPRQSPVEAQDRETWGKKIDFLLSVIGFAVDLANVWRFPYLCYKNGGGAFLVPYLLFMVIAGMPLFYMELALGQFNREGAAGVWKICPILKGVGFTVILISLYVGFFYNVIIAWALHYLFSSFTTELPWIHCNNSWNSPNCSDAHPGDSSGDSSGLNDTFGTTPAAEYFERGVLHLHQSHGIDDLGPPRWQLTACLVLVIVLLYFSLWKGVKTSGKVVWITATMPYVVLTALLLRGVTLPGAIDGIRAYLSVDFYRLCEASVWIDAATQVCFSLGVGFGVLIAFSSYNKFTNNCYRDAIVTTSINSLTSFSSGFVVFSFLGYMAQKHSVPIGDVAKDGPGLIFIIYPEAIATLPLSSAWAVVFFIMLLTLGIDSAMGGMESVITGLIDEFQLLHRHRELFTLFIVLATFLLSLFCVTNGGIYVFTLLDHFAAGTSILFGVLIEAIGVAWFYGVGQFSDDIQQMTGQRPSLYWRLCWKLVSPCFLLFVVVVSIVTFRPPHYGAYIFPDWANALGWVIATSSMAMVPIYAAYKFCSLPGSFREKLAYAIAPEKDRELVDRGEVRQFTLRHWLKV
smiles,measurement,setting,value
"CN1Cc2cc(-c3ccc(N)nn3)ccc2[C@H](c2ccc3ccccc3c2)C1 [Compound 1-(4S), 6-[(4S)-1,2,3,4-tetrahydro-2-methyl-4-(2-naphthalenyl)-7-isoquinolinyl]-3-pyridazinamine]",IC50,[1],0.00799 ± 0.00043 µM
same,dose that increased stereotypy scores,[2],10 mg/kg
same,margin between effective dose in mouse tail suspension and activity in stereotypy,[2],30 fold
same,Distribution coefficient Log Do/b,[3]; pH 6.5,3.10
same,Distribution coefficient Log Do/b,[3]; pH 7.4,3.82
same,NET occupancy,[4],nearly saturated
same,solubility,[5],≤ 1 µg/mL
same,IC50,[6],0.0375 ± 0.0025 µM
same,IC50,[7],0.0185 ± 0.0055 µM
same,Solution pH,[8],~7.0 at about 1 μg/mL concentration in water
same,SERT occupancy,[9],nearly saturated
same,significant increase in rectal temperature,"[10]; rat, 1.0 mg/kg",not
same,change in rectal temperature,"[10]; rat, doses of 3.0 and 10 mg/kg",Significant increases
same,DAT occupancy needed for the thermogenic effect,"[10]; rats, consistent with mice",at least 50%
same,change in rectal temperature,[11],significant increases
same,IC50,[12],0.0315 ± 0.0025 µM
same,receptor occupancy at 0.3 mg/kg,[13]; [17],86 ± 1%
same,receptor occupancy at 1 mg/kg,[13]; [18],89 ± 1%
same,SERT occupancy,"[13]; mouse, thermogenesis study, across doses 1, 3, 10 mg/kg",over 80%
same,Stability,[14],Compound 1-(4S) is stable up to 25 °C with protection
same,EC50,[15]; [19],0.047 µM
same,receptor occupancy at 1 mg/kg,"[15]; thermogenesis study, 1.0 mg/kg",37 ± 8.3%
same,receptor occupancy at 3 mg/kg,"[15]; thermogenesis study, 3.0 mg/kg",55 ± 5.2%
same,receptor occupancy at 10 mg/kg,"[15]; thermogenesis study, 10 mg/kg",71 ± 1.7%
same,receptor occupancy at 0.3 mg/kg,[16]; [17],28 ± 3%
same,receptor occupancy at 1 mg/kg,[16]; [18],54 ± 3%
same,EC50,[16]; [19],1.19 µM
same,receptor occupancy at 1 mg/kg,"[16]; thermogenesis study, 1.0 mg/kg",55 ± 5.7%
same,receptor occupancy at 3 mg/kg,"[16]; thermogenesis study, 3.0 mg/kg",74 ± 6%
same,receptor occupancy at 10 mg/kg,"[16]; thermogenesis study, 10 mg/kg",83 ± 0.8%
